From US9688654B2, “Compounds inhibiting leucine-rich repeat kinase enzyme activity” (Merck Sharp & Dohme Corp., priority 2013, dated 2017)

Assays:
[1] = target: T1, LRRK2 (G2019S mutation, GST-LRRK2 (amino acids 970-2527)) (Homo sapiens, UniProt Q5S007, G2019S); experiment: LRRK2 Km ATP LanthaScreen Assay; format: biochemical; details: mean IC50
T1 construct: GST-LRRK2 (amino acids 970-2527); GST (N); purchased Life Technologies Corporation
Protocol: Unless otherwise noted, all LRRK2 IC50 data presented in tables refers to the LRRK2 Km ATP LanthaScreen™ Assay that is described in the Biological Assay section.
(§1) The data presented for the 5 mM and Km ATP LanthaScreen™ Assay represents mean IC50 values based on several test results and may have reasonable. deviations depending on the specific conditions and reagents used. Reagents for the LRRK2 5 mM and Km ATP LanthaScreen™ Assay were purchased from Life Technologies Corporation.
• a) 400 nl of a 1:2.15 serial dilution of test compound (98 μM top assay concentration) is spotted via Labcyte Echo to certain wells in a 384 well black, untreated plate. Control wells contain 400 nl of either DMSO or 400 nl of a known inhibitor in DMSO. • b) 10 μl of a 2.5 nM LRRK2 (G2019S mutation, GST-LRRK2 (amino acids 970-2527)) enzyme solution in 1× assay buffer (50 mM Tris pH 8.5, 10 mM MgCl2, 0.01% Brij-35, 1.0 mM EGTA, 2 mM DTT, 0.05 mM NaVO4) is added to all wells. • c) A 30 minute room temperature incubation is followed by addition of 10 μl […]) After a 35 minute room temperature incubation, 20 μl of TR-FRET Dilution Buffer (Invitrogen PV3756B) containing 4 nM Tb-labeled anti-phospho LRRKtide antibody and 20 mM EDTA is added to all wells. • e) Plates are incubated at room temperature for 1 hour and read on an Envision™ multi-mode plate reader with LanthaScreen™ settings. Results are analysed using Assay Data Analyzer. […] Results are analysed using Assay Data Analyzer.

[2] = target: T1, LRRK2 (G2019S mutation, GST-LRRK2 (amino acids 970-2527)); experiment: LRRK2 5 mM ATP LanthaScreen Assay; format: biochemical; details: mean IC50
Protocol: as §1
LRRK2 5 mM ATP LanthaScreen™ Assay
• a) 400 nl of a 1:2.15 serial dilution of test compound (98 μM top assay concentration) is spotted via Labcyte Echo to certain wells in a 384 well black, untreated plate. Control wells contain 400 nl of either DMSO or 400 nl of a known inhibitor in DMSO. • b) 10 μl of a 2.5 nM LRRK2 (G2019S mutation, GST-LRRK2 (amino acids 970-2527)) enzyme solution in 1× assay buffer (50 mM Tris pH 8.5, 10 mM MgCl2, 0.01% Brij-35, 1.0 mM EGTA, 2 mM DTT, 0.05 mM NaVO4) is added to all wells. • c) A 30 minute room temperature incubation is followed by addition of 10 μl of 800 nM fluorescein labeled LRRKtide peptide substrate and 10 mM ATP solution in 1× assay buffer to all wells. • d) After a 35 minute room temperature incubation, 20 μl of TR-FRET Dilution Buffer (Invitrogen PV3756B) containing 4 nM Tb-labeled anti-phospho LRRKtide antibody and 20 mM EDTA is added to all wells. • e) Plates are incubated at room temperature for 1 hour and read on an Envision™ multi-mode plate reader with LanthaScreen™ settings. Results are analysed using Assay Data Analyzer. […] Results are analysed using Assay Data Analyzer.

T1 sequence (Q5S007 970-2527 G2019S): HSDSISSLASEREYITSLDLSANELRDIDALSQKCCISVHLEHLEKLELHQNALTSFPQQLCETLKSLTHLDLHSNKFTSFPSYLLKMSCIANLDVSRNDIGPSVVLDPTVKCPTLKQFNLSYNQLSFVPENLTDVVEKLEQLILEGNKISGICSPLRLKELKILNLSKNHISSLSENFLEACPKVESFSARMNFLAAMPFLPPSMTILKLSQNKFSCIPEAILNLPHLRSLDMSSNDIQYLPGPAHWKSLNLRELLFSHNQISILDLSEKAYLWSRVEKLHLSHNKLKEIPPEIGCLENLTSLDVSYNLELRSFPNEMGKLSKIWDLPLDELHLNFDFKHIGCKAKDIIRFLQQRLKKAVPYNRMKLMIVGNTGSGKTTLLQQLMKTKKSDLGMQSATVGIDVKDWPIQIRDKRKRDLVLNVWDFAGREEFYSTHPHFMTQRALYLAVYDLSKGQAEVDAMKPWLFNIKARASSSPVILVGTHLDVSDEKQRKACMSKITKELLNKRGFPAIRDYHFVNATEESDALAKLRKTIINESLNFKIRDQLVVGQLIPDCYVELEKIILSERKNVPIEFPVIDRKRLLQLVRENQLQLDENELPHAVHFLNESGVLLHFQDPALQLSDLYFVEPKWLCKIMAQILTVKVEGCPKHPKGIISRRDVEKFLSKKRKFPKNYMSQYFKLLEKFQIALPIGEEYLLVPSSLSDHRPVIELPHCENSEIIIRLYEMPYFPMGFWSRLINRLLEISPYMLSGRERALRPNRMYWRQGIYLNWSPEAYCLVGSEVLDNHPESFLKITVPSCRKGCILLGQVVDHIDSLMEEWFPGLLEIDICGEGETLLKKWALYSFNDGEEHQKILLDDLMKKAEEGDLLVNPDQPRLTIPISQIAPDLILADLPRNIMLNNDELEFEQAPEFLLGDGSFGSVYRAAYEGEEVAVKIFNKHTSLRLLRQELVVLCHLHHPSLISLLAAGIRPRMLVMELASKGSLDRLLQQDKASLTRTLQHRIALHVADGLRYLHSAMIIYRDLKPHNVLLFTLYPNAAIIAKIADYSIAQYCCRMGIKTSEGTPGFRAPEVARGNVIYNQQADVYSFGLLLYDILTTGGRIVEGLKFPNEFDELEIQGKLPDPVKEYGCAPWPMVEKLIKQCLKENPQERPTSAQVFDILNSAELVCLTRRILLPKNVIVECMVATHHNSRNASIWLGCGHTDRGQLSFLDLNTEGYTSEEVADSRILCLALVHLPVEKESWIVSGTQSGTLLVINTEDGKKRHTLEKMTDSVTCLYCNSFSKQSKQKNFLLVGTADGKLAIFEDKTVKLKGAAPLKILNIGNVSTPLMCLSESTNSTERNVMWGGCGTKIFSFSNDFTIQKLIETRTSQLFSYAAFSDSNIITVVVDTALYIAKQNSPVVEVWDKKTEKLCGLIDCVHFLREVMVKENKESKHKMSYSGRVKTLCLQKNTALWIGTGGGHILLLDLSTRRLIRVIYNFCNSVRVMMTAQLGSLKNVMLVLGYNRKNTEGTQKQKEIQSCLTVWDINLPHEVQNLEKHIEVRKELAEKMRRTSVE

| SMILES | IC50 [1] | IC50 [2] |
| --- | --- | --- |
| c1cc(-c2n[nH]c3ccc(OC4CC4)cc23)cc(N2CCC2)n1 [Example 9] | 16 nM | 225 nM |
| CCc1nnc2n1CCN(c1cc(-c3n[nH]c4ccc(OC5CC5)cc34)ccn1)C2 [Example 23] | 12 nM | 297 nM |
| c1cc(-c2n[nH]c3ccc(OC4CC4)cc23)cc(N2CCN(C3CC3)CC2)n1 [Example 26] | 12 nM | 300 nM |
